Assay results: ChEMBL document CHEMBL3797054, “Discovery of a series of 8-(2,3-dihydro-1,4-benzoxazin-4-ylmethyl)-2-morpholino-4-oxo-chromene-6-carboxamides as PI3Kβ/δ inhibitors for the treatment of PTEN-deficient tumours” (Bioorg Med Chem Lett, 2016)

Legend:
[1] = Intrinsic clearance in human hepatocytes assessed per million cells; assay type: ADME, cell-based, Hepatocyte; settings: read-out: CLH
physchem = settings: buffer, pH 7.4
in vitro = settings: human, Caco-2
[2] = AUC in hairy mouse at 30 umol/kg, po; assay type: ADME, organism-based; settings: in vivo
[3] = Clearance in hairy mouse blood at 5 umol/kg, iv and 30 umol/kg, po; assay type: ADME, organism-based
[4] = Volume of distribution at steady state in hairy mouse blood at 5 umol/kg, iv and 30 umol/kg, po; assay type: ADME, organism-based; settings: read-out: Vdss
[5] = Oral bioavailability in hairy mouse blood at 30 umol/kg; assay type: ADME, organism-based
[6] = Clearance in dog blood at 4 umol/kg, iv and 10 umol/kg, po; assay type: ADME, organism-based, Canis lupus familiaris
[7] = Volume of distribution at steady state in dog blood at 4 umol/kg, iv and 10 umol/kg, po; assay type: ADME, organism-based, Canis lupus familiaris; settings: read-out: Vdss
[8] = Oral bioavailability in dog blood at 10 umol/kg; assay type: ADME, organism-based, Canis lupus familiaris
Hepatocyte = experiment: Intrinsic clearance in mouse hepatocytes assessed per million cells; assay type: ADME, cell-based
[9] = Intrinsic clearance in dog hepatocytes assessed per million cells; assay type: ADME, cell-based, Canis lupus familiaris, Hepatocyte

Row | Compound | hepatocyte CLint [1] [µL/min/1e6 cells] | logD (physchem) | Papp A→B at 2 h, 10 µM (in vitro) [×10⁻⁶ cm/s] | AUC [2] [µM·h] | further results
1 | C[C@@H]1CN(c2cc(=O)c3cc(C(=O)N(C)C)cc(CN4CCOc5ccc(F)cc54)c3o2)CCO1 | 15 | 2.3 | – | – | –
2 | COCCN(Cc1cc(C(=O)N(C)C)cc2c(=O)cc(N3CCO[C@H](C)C3)oc12)c1cc(F)cc(F)c1 | 14 | 2.2 | 14 | – | –
3 | CN(C)C(=O)c1cc(CN(CCC#N)c2cc(F)cc(F)c2)c2oc(N3CCOCC3)cc(=O)c2c1 | < 3 | 1.8 | – | – | –
4 | C[C@@H]1CN(c2cc(=O)c3cc(C(=O)N4CCOCC4)cc(CN4CCOc5c(F)cc(F)cc54)c3o2)CCO1 | < 3 | – | – | – | –
5 | C[C@@H]1CN(c2cc(=O)c3cc(C(=O)N(C)C)cc(CN4CCOc5c(F)cccc54)c3o2)CCO1 | < 3 | 2 | 28 | 7.3 | –
6 | C[C@@H]1CN(c2cc(=O)c3cc(C(=O)N4CCOCC4)cc(CN4CCOc5c(F)cccc54)c3o2)CCO1 | < 3 | – | – | 1 | –
7 | CN(C)C(=O)c1cc(CN2CCOc3ccc(F)cc32)c2oc(N3CCOCC3)cc(=O)c2c1 | 12 | 1.9 | – | – | –
8 | CN(C)C(=O)c1cc(CN(C)c2cc(F)cc(F)c2)c2oc(N3CCOCC3)cc(=O)c2c1 | < 5 | – | – | 4.9 | –
9 | C[C@@H]1CN(c2cc(=O)c3cc(C(=O)N(C)C)cc(CN4CCOc5c(F)cc(F)cc54)c3o2)CCO1 | 8 | 2.3 | 25 | – | –
10 | CN(C)C(=O)c1cc(CN2CCOc3c(F)cc(F)cc32)c2oc(N3CCOCC3)cc(=O)c2c1 | 7 | 2.1 | 9 | 4.4 | –
11 | C[C@@H]1CN(c2cc(=O)c3cc(C(=O)N(C)C)cc(CN(C)c4cc(F)cc(F)c4)c3o2)CCO1 | 5 | 2.7 | 55 | 15.3 | –
12 | C[C@@H]1CN(c2cc(=O)c3cc(C(=O)N4CCOCC4)cc(CN4CCOc5ccc(F)cc54)c3o2)CCO1 | 4 | 2 | 11 | 2.8 | –
13 | CC(c1cc(C(=O)N(C)C)cc2c(=O)cc(N3CCOCC3)oc12)N1CCOc2c(F)cc(F)cc21 (configuration not stated) | – | 2 | – | – | –
14 | CN(C)C(=O)c1cc(CN2CCOc3c(F)cccc32)c2oc(N3CCOCC3)cc(=O)c2c1 | < 1 | 1.7 | 6.5 | 3.9 | clearance [3]: 49 mL/min/kg; Vd [4]: 1.9 L/kg; bioavailability [5]: 47%; clearance [6]: 13 mL/min/kg; Vd [7]: 1.6 L/kg; bioavailability [8]: 63%; hepatocyte CLint (Hepatocyte): 21 µL/min/1e6 cells; hepatocyte CLint [9]: 4 µL/min/1e6 cells
15 | COCCN(Cc1cc(C(=O)N(C)C)cc2c(=O)cc(N3CCOCC3)oc12)c1cc(F)cc(F)c1 | 8 | 2.1 | 11 | 2.4 | –
16 | CN(C)C(=O)c1cc(CN(CC#N)c2cc(F)cc(F)c2)c2oc(N3CCOCC3)cc(=O)c2c1 | < 3 | 1.5 | – | – | –
